Values after ≈ are worked out from the molar mass of the structure shown.
Legend:
[1] = test system: A. fumigatus s 1008; assay: In vitro MIC, NCCLS M38P broth method (RPMI 1640/MOPS pH7), Aspergillus fumigatus; assay type: cell-based; details: A. fumigatus strain 1008
[2] = test system: Candida; assay: In vitro MIC, NCCLS M27A, Candida species; assay type: cell-based; design: MIC, Candida albicans 1.549 / MIC, Candida albicans Y-01-19 / MIC, C. krusei 766-1 / MIC, C. krusei Q. C / MIC, Candida tropicalis ATCC / MIC, C. glabrata 90030: unit not given beside the values; MIC, Candida albicans A 26 / MIC, C. parapsilosis Q. C.: unit not given here; details: for MIC, C. glabrata 90030: C. glabrata strain 90030; for MIC, C. krusei 766-1: C. krusei strain 766-1; for MIC, C. krusei Q. C: C. krusei strain Q. C; for MIC, C. parapsilosis Q. C.: C. parapsilosis strain Q. C.; for MIC, Candida albicans 1.549: Candida albicans strain 1.549; for MIC, Candida albicans A 26: Candida albicans strain A 26; for MIC, Candida albicans Y-01-19: Candida albicans strain Y-01-19
[3] = test system: Cryptococcus neoformans; assay: In vitro MIC, NCCLS M27A, Cryptococcus neoformans; assay type: cell-based; design: MIC, C. neoformans I: unit not given beside the values; MIC, C. neoformans M 106: unit not given here; details: for MIC, C. neoformans I: C. neoformans strain I; for MIC, C. neoformans M 106: C. neoformans strain M 106
[4] = test system: Histoplasma capsulatum; assay type: cell-based
[5] = test system: isolates of Aspergillus species; details: cited from earlier work
[6] = target: lanosterol 14α—demethylase; details: target enzyme in the fungus; read-out: IC50 against lanosterol 14α-demethylase; cited from earlier work

| SMILES | MIC, A. fumigatus 1008 [1] | MIC, C. glabrata 90030 [2] | MIC, C. krusei 766-1 [2] | MIC, C. krusei Q. C [2] | MIC, C. parapsilosis Q. C. [2] | MIC, Candida albicans 1.549 [2] | MIC, Candida albicans A 26 [2] | MIC, Candida albicans Y-01-19 [2] | MIC, Candida tropicalis ATCC [2] | MIC, C. neoformans I [3] | MIC, C. neoformans M 106 [3] | MIC, H. capsulatum [4] [µg/mL] | melting point [°C] | minimum inhibitory concentration (MIC) [5] [µg/mL] | IC50 [6] [µM] |
| --- | --- | --- | --- | --- | --- | --- | --- | --- | --- | --- | --- | --- | --- | --- | --- |
| O=c1n(-c2ccc(N3CCN(c4ccccc4F)CC3)cc2)cnn1CC(O)(Cn1cncn1)c1ccc(F)cc1F (stereo not shown) [Compound 62, 2-[2-(2,4-Difluorophenyl)-2-hydroxy-3-(1H-1,2,4-triazol-1-yl)propyl]-4-{4-[4-(2-fluorophenyl)-1-piperazinyl]phenyl}-3-(2H,4H)-1,2,4-triazolone] | 16.00 | 1.00 | 2.00 | 0.50 | <0.03 | 4.00 | <0.03 | 0.50 | <0.03 | <0.03 | 0.12 | < 0.03 | 74 to 76 | – | – |
| O=c1n(-c2ccc(N3CCN(c4ccc(F)c(F)c4F)CC3)cc2)cnn1CC(O)(Cn1cncn1)c1ccc(F)cc1F (stereo not shown) [Compound 63, 2-[2-(2,4-Difluorophenyl)-2-hydroxy-3-(1H-1,2,4-triazol-1-yl)propyl]-4-{4-[4-(2,3,4-trifluorophenyl)-1-piperazinyl]phenyl}-3-(2H,4H)-1,2,4-triazolone] | >16 | 0.50 | 8.00 | 0.25 | <0.03 | 0.06 | <0.03 | 0.12 | <0.03 | <0.03 | <0.03 | < 0.03 | 186 to 187 | – | – |
| OC(Cn1cncn1)(Cn1cncn1)c1ccc(F)cc1F [fluconazole] | – | – | – | – | – | – | – | – | – | – | – | – | – | 400 (≈ 1310 µM) | 4.8 |

Source: patent US6670363B1, “Azole compounds as therapeutic agents for fungal infections” (Ranbaxy Laboratories Limited, priority 2000, dated 2003)
